Laboratory results as given in patent US6558650B1, “Enhancement of cellular gallium uptake” (Oregon Health and Science University, priority 1998, dated 2003).

How the values were obtained:
[1] = system: TfR− and TfR+ cells (Chinese Hamster Ovary); assay: Cellular uptake of Ga-67, text statements that do not separate TfR− and TfR+ cells; assay type: cell-based
Text: (§1) A pair of transfected Chinese Hamster Ovary cells lines were used to compare, in a controlled manner, the Tf-dependent and Tf-independent systems for the uptake of Ga-67.
(§2) The two cell lines are identical except that TfR-cells express no TfR, and TfR+ cells over-express the transfected human TfR constitutively. This means that expression of the TfR is independent of cell growth or iron content, which could alter the cells matabolically in many ways that may confound a well-controlled experimental determination of cause and effect. TfR− and TfR+ cells were grown in monolayer and maintained as previously described (37).
The tube was placed on its side on the surface of a cool, daylight color-balanced, fluorescent light box (Just Normlicht).
The temperature at the surface of the light box was 29° C. for the fluorescent light box, and 37° C. for the UV light box. The PDN was added to 10 ml of incubation solution (below) to achieve concentrations ranging from 0.25 μM to 100 μM. Each 10 ml sample of incubation solution contained an equal quantity of ethanol (approximately 100 µl per 10 ml), including the controls.
Following growth of cells in 25 cm^2 flasks to subconfluence, monolayers of cultured cells were first washed, and then pre-incubated for 2 hours at 37° C. with 5 ml serum-free Dulbecco's Modified Essential Medium (DMEM) to deplete the cells of Tf. The pre-incubation medium was then removed and replaced by 1.5 ml of the incubation solution containing 10 uCi/ml carrier-free Ga-67 citrate (Mallinckrodt) in Hank's Balanced Salt solution (HBSS), pre-warmed to 37° C. The concentration of Ga-67 in the incubation solution was approximately 0.25 nM. The HBSS, pH 7.2-7.4, contained 3.7 g/L NaHCO3, 1 mM CaCl2, and 1 mM magnesium salts. Cells were incubated in the PDN- and Ga-67-containing solutions in a CO2 incubator at 37° C. for intervals ranging from 10 seconds to 90 minutes. All experiments were conducted in the dark.
Following incubation of cells with Ga-67, the flasks were immediately placed on ice. The radioactive material was removed by aspiration with a Pasteur pipette attached to water suction. The monolayers were washed 3 times with 5 ml each ice cold HBSS. Cells were washed once with phosphate-buffered saline (PBS), pre-warmed to 37° C. The PBS was removed and the cellular monolayer overlaid with 1.5 ml 0.25% trypsin containing 1 mM EDTA. The trypsin was immediately removed and the cells were incubated briefly (1 minute) at 37° C. The cells in each flask were then dislodged by several gentle mechanical blows to the side of the flask and collected in 200 μl ice cold PBS.
By a modification of a method previously published for radiolabeling of protozoan parasites (38), the cells were then separated from unbound contaminating radioactivity. The 200 μl of cells in PBS were layered gently over 200 μl of an 8.5:1.5 ratio of dibutylpthalate:liquid paraffin oil in a 1.5 ml microfuge tube. With care not to agitate the mixture, the tubes were than centrifuged at 12,000 rpm for 2 minutes in a microfuge. The supernatant and the oil was then aspirated carefully from the top of the tube with a Pasteur pipette attached to water suction. The bottom of the microfuge tube, containing the cell pellet (typical pellet volume˜100 μl), was then clipped with a microfuge tube clipper into a counting vial containing 900 μl of a solution of 200 mM NaOH. 1% SDS. The cell pellet was dissolved in this solution. The content of radioactivity in the samples was determined by a gamma well counting (Packard) in comparison to standard dilutions of the original Ga-67 incubation solution.
Protein assays were performed on the solubilized cell samples by formation of a cuprous bicinchonicic acid complex using a spectrophotometric microtiter plate reader (Dynatech) (39). The method and reagents used are supplied in a kit (Pierce) and were performed according to the manufacturer's directions.

[2] = system: nucleated rabbit erythrocytes; settings: isolated nitroso-derivative compared with crude photo-degraded nifedipine (44); cited from earlier work
[3] = oral; cited from earlier work
[4] = system: TfR+ cells (transfected Chinese Hamster Ovary cells over-expressing human TfR); settings: 0.5 h, 25 µM
Text: as §1, §2
(§3) The tube was placed on its side on the surface of a cool, daylight color-balanced, fluorescent light box (Just Normlicht). […]
(§4) The temperature at the surface of the light box was 29° C. for the fluorescent light box, and 37° C. for the UV light box. […] Each 10 ml sample of incubation solution contained an equal quantity of ethanol (approximately 100 µl per 10 ml), including the controls. […]
(§5) By a modification of a method previously published for radiolabeling of protozoan parasites (38), the cells were then separated from unbound contaminating radioactivity. […] The content of radioactivity in the samples was determined by a gamma well counting (Packard) in comparison to standard dilutions of the original Ga-67 incubation solution. […]

[5] = system: TfR− cells (transfected Chinese Hamster Ovary cells expressing no TfR); settings: 0.5 h, 25 µM
Text: as §1, §2, §3, §4, §5

For `CC(=O)c1c(C)nc(C)c(C(C)=O)c1-c1ccccc1N=O` [nitroso-derivative, 2,6-dimethyl-3,5-diacetyl-4-(2′-nitrosophenyl)-pyridine], the “gallium uptake (inferred from conditions that correlate with presence of the nitroso-derivative)” value ([1]; not tested in isolation, inferred from Example 3 data) is given as “enhances gallium uptake” and the “pharmacological action in enhancing the uptake of Fe^2+” value [2] is given as “same pharmacological action as “crude” photo-degraded nifedipine”.

In the case of `COc1ccc([C@@H]2Sc3ccccc3N(CCN(C)C)C(=O)[C@@H]2OC(C)=O)cc1` [diltiazem], the “effect on Ga-67 uptake” value ([1]; light-protected compound) is reported as “None of the light-protected or photo-irradiated compounds had an effect” and the “effect on Ga-67 uptake” value ([1]; photo-irradiated compound) is reported as “None of the light-protected or photo-irradiated compounds had an effect”.

For `COc1ccc(CCN(C)CCCC(C#N)(c2ccc(OC)c(OC)c2)C(C)C)cc1OC` (centres unmarked) [verapamil], the “effect on Ga-67 uptake” value ([1]; light-protected compound) was “None of the light-protected or photo-irradiated compounds had an effect” and the “effect on Ga-67 uptake” value ([1]; photo-irradiated compound) was “None of the light-protected or photo-irradiated compounds had an effect”.

For `COC(=O)C1=C(C)NC(C)=C(C(=O)OC)C1c1ccccc1[N+](=O)[O-]` [Nifedipine, dimethyl 1,4-dihydro-2,6-dimethyl-4-(2-nitrophenyl)-3,5-pyridinedicarboxylate], the “time to peak plasma levels post ingestion” value [3] is given as “approximately 30 minutes”, the “fmoles Ga-67/mg Total Cellular Protein, TfR+ cells” value [4] is given as 0.296 fmoles Ga-67/mg Total Cellular and the “fmoles Ga-67/mg Total Cellular Protein, TfR− cells” value [5] is given as “.171 fmoles Ga-67/mg Total Cellular”.

For `COC(=O)C1=C(C)NC(C)=C([N+](=O)[O-])C1c1ccccc1C(F)(F)F` (centres unmarked) [BAY K 8644], the “effect on Ga-67 uptake” value ([1]; light-protected compound) was “None of the light-protected or photo-irradiated compounds had an effect” and the “effect on Ga-67 uptake” value ([1]; photo-irradiated compound) was “None of the light-protected or photo-irradiated compounds had an effect”.
